Results reported in patent US12139499B2, “Heteroaryl compounds for treating Huntington's disease” (PTC THERAPEUTICS, INC., priority 2018, dated 2024).

Tested on: Endogenous Huntingtin Protein
Test: Endogenous Huntingtin Protein Assay (ELISA-based MSD electrochemiluminescence)
Format: cell-based
Conditions: Table 1
In short: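 Sandwich MSD electrochemiluminescence immunoassay. Capture used MW1 (expanded polyglutamine) or MAB2166 antibody coated at 1 μg/mL overnight at 4 °C. Samples were bound overnight at 4 °C, then a rabbit monoclonal detection antibody and SULFO-TAG anti-rabbit, each at 0.25 μg/mL, were applied for 1 h at room temperature.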

Compound	IC50 [nM]
Cc1cn2cc(-c3ccc4nc(N(C)C5CC(C)(C)NC(C)(C)C5)sc4c3)ccc2n1 [Compound 63, N-methyl-6-(2-methylimidazo[1,2-a]pyridin-6-yl)-N-(2,2,6,6-tetramethylpiperidin-4-yl)-1,3-benzothiazol-2-amine]	100 to 500
Cc1nc2ccc(-c3ccc4nc(N(C)C5CC(C)(C)NC(C)(C)C5)sc4c3)nn2n1 [Compound 48, N-methyl-6-(2-methyl[1,2,4]triazolo[1,5-b]pyridazin-6-yl)-N-(2,2,6,6-tetramethylpiperidin-4-yl)-1,3-benzothiazol-2-amine]	100 to 500
CN1CC=C(c2nc3ccc(-c4ccc5nn(C)cc5c4)cc3s2)CC1 [Compound 3, 6-(2-methyl-2H-indazol-5-yl)-2-(1-methyl-1,2,3,6-tetrahydropyridin-4-yl)-1,3-benzothiazole]	500 to 1000
Cc1cc(-c2ncc3nc(C4CCNCC4)sc3n2)cc2cn(C)nc12 [Compound 110, 5-(2,7-dimethyl-2H-indazol-5-yl)-2-(piperidin-4-yl)[1,3]thiazolo[5,4-d]pyrimidine]	100 to 500
Cc1cn2cc(-c3ccc4nc(N(C)C5CC6CCCC(C5)N6)sc4n3)cc(F)c2n1 (stereo not drawn) [Compound 280, N-[(3-exo)-9-azabicyclo[3.3.1]non-3-yl]-5-(8-fluoro-2-methylimidazo[1,2-a]pyridin-6-yl)-N-methyl[1,3]thiazolo[5,4-b]pyridin-2-amine]	≤ 100
Cc1nc2ccc(-c3ccc4nc(C5CCNCC5)sc4c3)cc2o1 [Compound 112, 2-methyl-6-[2-(piperidin-4-yl)-1,3-benzothiazol-6-yl]-1,3-benzoxazole]	100 to 500
Cc1cn2cc(-c3cc4sc(N(C)[C@@H]5C[C@H]6CC[C@@H](C5)N6C)nc4cn3)cc(C#N)c2n1 [Compound 240, 2-methyl-6-(2-{methyl[(3-exo)-8-methyl-8-azabicyclo[3.2.1]oct-3-yl]amino}[1,3]thiazolo[4,5-c]pyridin-6-yl)imidazo[1,2-a]pyridine-8-carbonitrile]	100 to 500
Cc1cn2cc(-c3cc4sc(N(C)C5CC6(C)CCC(C)(C5)N6)nc4cn3)ccc2n1 [Compound 300, N-[(1R,3s,5S)-1,5-dimethyl-8-azabicyclo[3.2.1]octan-3-yl]-N-methyl-6-(2-methylimidazo[1,2-a]pyridin-6-yl)[1,3]thiazolo[4,5-c]pyridin-2-amine]	≤ 100
CN1CCC(Nc2nc3nnc(-c4ccc(-c5cn[nH]c5)cc4O)cc3s2)CC1 [Compound 366, 2-{6-[(1-methylpiperidin-4-yl)amino][1,3]thiazolo[4,5-c]pyridazin-3-yl}-5-(1H-pyrazol-4-yl)phenol]	≤ 100
Cc1cc(-c2cc(F)c3nc(N(C)C4CC(C)(C)NC(C)(C)C4)sc3c2)cc2cn(C)nc12 [Compound 24, 6-(2,7-dimethyl-2H-indazol-5-yl)-4-fluoro-N-methyl-N-(2,2,6,6-tetramethylpiperidin-4-yl)-1,3-benzothiazol-2-amine]	≤ 100
CN1CCC2(CC1)CCN2c1nc2nnc(-c3ccc(-c4cn[nH]c4)cc3O)cc2s1 [Compound 339, 2-[6-(7-methyl-1,7-diazaspiro[3.5]nonan-1-yl)[1,3]thiazolo[4,5-c]pyridazin-3-yl]-5-(1H-pyrazol-4-yl)phenol]	≤ 100
Cc1cn2nc(-c3cc(F)c4nc(N(C)C5CC(C)(C)NC(C)(C)C5)sc4c3)cc(N)c2n1 [Compound 201, 6-{4-fluoro-2-[methyl(2,2,6,6-tetramethylpiperidin-4-yl)amino]-1,3-benzothiazol-6-yl}-2-methylimidazo[1,2-b]pyridazin-8-amine]	100 to 500
Cn1cc2cc(-c3cc4sc(OC5CCNCC5)nc4cn3)cc(C#N)c2n1 [Compound 315, 2-methyl-5-{2-[(piperidin-4-yl)oxy][1,3]thiazolo[4,5-c]pyridin-6-yl}-2H-indazole-7-carbonitrile]	100 to 500
